This is an account of results in paper PMC9833666, “Designing and identifying β-hairpin peptide macrocycles with antibiotic potential” (Science Advances, 2023).

The subject of data set [1] is Acinetobacter baumannii AB5075. The note with it: for AB5075 MIC FBS: 100% fetal bovine serum; for AB5075 MIC MH: Mueller-Hinton. The procedure:
MICs were performed by a modifiedClinical and Laboratory Standards Institute) procedure. […] Separately, E. coli W3110 or A. baumannii AB5075 was grown overnight in 5 ml of standard MH at 37°C. Cells from these cultures were diluted to a concentration of 5 × 10^5 to 6 × 10^5 cells/ml in either standard MH, MHII, RPMI, or fetal bovine serum, and 90 μl was added to each well of the 96-well plate containing diluted peptide. Plates were wrapped twice in parafilm and incubated at 37°C for 18 to 24 hours. Wells were examined by eye against wells with no bacteria for signs of growth. MICs were reported as the minimum concentration with no observable growth. In cases where triplicate samples differed, the concentration supported by the median of the three replicates was reported. […]
For consistency, all SynCH peptides were resuspended at 10 mg/ml in water. Peptides were then visually inspected for any lack of solubility (Data File S1). […]
We had this library commercially synthesized and tested its ability to inhibit the growth of Acinetobacter baumannii AB5075, a clinically isolated Carbapenem Resistant Acinetobacter (CRA) pathogen. MICs were performed in MH as well as 100% FBS, which is likely more representative of the in vivo environment. […]

Data set [2] relates to Single-donor human red blood cells. Briefly: Hemolysis assay. The class given is cell-based. The procedure:
Single-donor human red blood cells (Innovative Research, no. IWB3ALS) were washed in PBS and adjusted to a concentration of 1 × 10^9 cells/ml. Each peptide was added individually to 200 μl of cells at a concentration of either 300 μg/ml (SySA library) or 128 μg/ml (SySA-5 optimization library) in a 96-well polypropylene plate (Corning, 3879). PBS alone and 1% Triton X-100 were used for background normalization and 100% hemolysis, respectively. Each reaction was set up in triplicate. Plates were incubated for 3 hours at 37°C. Following incubation, samples were centrifuged at 800g for 20 min, and 100 μl of supernatant was transferred to a flat-bottom 96-well plate (Genesse, 25-104). Percent hemolysis for each sample was determined by normalizing the absorbance at 540 nm for each sample to the average background and dividing by the average absorbance for 1% Triton X-100 (100% hemolysis). Error bars represent 1 SD of triplicate samples.

The next data set concerns Escherichia coli W3110. The class given is cell-based. The note with it: for Ec W3110 MIC MH: E. coli W3110, MH medium; for Ec W3110 MIC RPMI: E. coli W3110, RPMI medium.

Like-named read-outs stand apart in the source and are kept apart here. Bridge positions count the residues as written; N and C are the ends. Ends that are not written are not given here. Peptide text beside a SMILES is read from it.

On to `CC(C)C[C@@H]1NC(=O)[C@H](CO)NC(=O)[C@H](C(C)C)NC(=O)[C@@H]2CSSC[C@H](NC(=O)[C@H](CC(C)C)NC(=O)[C@H](CCCNC(=N)N)NC(=O)[C@H](C(C)C)NC(=O)[C@H](CCCNC(=N)N)NC(=O)[C@H](CC(C)C)NC(=O)[C@@H](N)CSSC[C@@H](C(=O)O)NC(=O)[C@H](C(C)C)NC(=O)[C@H](CCCNC(=N)N)NC1=O)C(=O)N[C@@H](CCCNC(=N)N)C(=O)N[C@@H](CCCNC(=N)N)C(=O)NCC(=O)N[C@@H](CCCNC(=N)N)C(=O)N2` [SySA-5.13] (H-CLRVRLCRRGRCVSLRVC-OH; disulfide 1-18, 7-12 (inferred); N-terminus and C-terminus assumed), for which the “AB5075 MIC FBS” value in data set [1] (replicate 1), in data set [1] (replicate 2) and in data set [1] (replicate 3) was >128 µg/mL each time. The “AB5075 MIC MH” value worked out at 32 µg/mL in data set [1] (replicate 1), 8 µg/mL in data set [1] (replicate 2) and 16 µg/mL in data set [1] (replicate 3). Also, the “Fold Change Hemolysis” value in data set [2] (hemolysis at 128 µg/ml, fold change relative to SySA-5) was 3.2.

`CC[C@H](C)[C@@H]1NC(=O)[C@H](CCCNC(=N)N)NC(=O)[C@H](CC(C)C)NC(=O)[C@H](CCCNC(=N)N)NC(=O)CNC(=O)[C@H](CCCNC(=N)N)NC(=O)[C@H](CCCNC(=N)N)NC(=O)[C@H](CC(=O)O)NC(=O)[C@H](CC(=O)O)NC(=O)[C@H](CC(C)C)NC(=O)[C@H](CCCNC(=N)N)NC(=O)[C@H](C(C)C)NC(=O)[C@H](CCCNC(=N)N)NC(=O)[C@H](CC(C)C)NC(=O)[C@@H](N)CSSC[C@@H](C(=O)O)NC(=O)[C@H](C(C)C)NC(=O)[C@H](CCC(N)=O)NC(=O)[C@H](CC(C)C)NC(=O)[C@H](CO)NC1=O` [SyPA-9] (H-CLRVRLDDRRGRLRISLQVC-OH; disulfide 1-20): the “W3110 MIC” value in the data set with Escherichia coli W3110 (W3110) was found to be 64 µg/mL. Further, the “%Hemo” value in data set [2] amounted to 11.36%.

In the case of “CRVRINIDNRSGRVKLEVQC (disulfide 1-20 (inferred)) [SySA-87]”, in the data set on Escherichia coli W3110, the Ec W3110 MIC MH is > 256 µg/mL and the Ec W3110 MIC RPMI was > 256 µg/mL. For the same compound, the hemolysis in data set [2] came out at 4.63%.

For the compound “CLTIRVDNRGSRVRITLEVC (disulfide 1-20 (inferred)) [SySA-70]”, in the data set with Escherichia coli W3110, the Ec W3110 MIC MH was > 256 µg/mL and the Ec W3110 MIC RPMI was > 256 µg/mL. For the same compound, the hemolysis in data set [2] amounted to 0.92%.

For “CRIRINIDNRSGTVRLEVQC (disulfide 1-20 (inferred)) [SySA-3]”, in the data set with Escherichia coli W3110, the Ec W3110 MIC MH is > 256 µg/mL and the Ec W3110 MIC RPMI is > 256 µg/mL. In addition, the hemolysis in data set [2] came to 0.24%.

As to “CRIKIDVDNRRRTLKLQLEC (disulfide 1-20 (inferred)) [SySA-74]”, in the data set with Escherichia coli W3110, the Ec W3110 MIC MH was > 256 µg/mL and the Ec W3110 MIC RPMI is > 256 µg/mL. Besides, the hemolysis in data set [2] is listed as 0.72%.

Consider “CLTVRVNNRRSGVRVSVQVC (disulfide 1-20 (inferred)) [SySA-43]”, for which, in the data set on Escherichia coli W3110, the Ec W3110 MIC MH was > 256 µg/mL and the Ec W3110 MIC RPMI was > 256 µg/mL. Moreover, the hemolysis in data set [2] is 0.11%.

Turning to “CLTVRVDNRGSRLKVTVEVC (disulfide 1-20 (inferred)) [SySA-55]”, in the data set with Escherichia coli W3110, the Ec W3110 MIC MH is > 256 µg/mL and the Ec W3110 MIC RPMI is > 256 µg/mL. In addition, the hemolysis in data set [2] is -0.10%.

With “CLTVRLDNRGRGLKISVEVC (disulfide 1-20 (inferred)) [SySA-60]”, in the data set on Escherichia coli W3110, the Ec W3110 MIC MH is > 256 µg/mL and the Ec W3110 MIC RPMI was > 256 µg/mL. Further, the hemolysis in data set [2] amounted to 0.53%.

With “CRIKVDINNRSGRVKLQVQC (disulfide 1-20 (inferred)) [SySA-20]”, in the data set on Escherichia coli W3110, the Ec W3110 MIC MH is > 256 µg/mL and the Ec W3110 MIC RPMI was > 256 µg/mL. Besides, the hemolysis in data set [2] was 0.42%.

As to “CVTVRVNNRGSRLKVSVEVC (disulfide 1-20 (inferred)) [SySA-18]”, in the data set with Escherichia coli W3110, the Ec W3110 MIC MH is > 256 µg/mL and the Ec W3110 MIC RPMI is > 256 µg/mL. Further, the hemolysis in data set [2] came out at 0.60%.

As for “CRIRINVNNRGRTLKLEVQC (disulfide 1-20 (inferred)) [SySA-10]”, in the data set on Escherichia coli W3110, the Ec W3110 MIC MH was > 256 µg/mL and the Ec W3110 MIC RPMI is > 256 µg/mL. For the same compound, the hemolysis in data set [2] was determined as 0.40%.

Turning to “CLRIRVDNRGSGVKVTLEVC (disulfide 1-20 (inferred)) [SySA-57]”, in the data set on Escherichia coli W3110, the Ec W3110 MIC MH was > 256 µg/mL and the Ec W3110 MIC RPMI was > 256 µg/mL. In data set [2], the hemolysis was found to be 0.25%.

For the compound “CVRIRLNNGGSGVKVTVEVC (disulfide 1-20 (inferred)) [SySA-85]”, in the data set with Escherichia coli W3110, the Ec W3110 MIC MH was > 256 µg/mL and the Ec W3110 MIC RPMI is > 256 µg/mL. For the same compound, in data set [2], the hemolysis was determined as 1.81%.

With “CRVRININNGGRRVKLEVQC (disulfide 1-20 (inferred)) [SySA-32]”, in the data set on Escherichia coli W3110, the Ec W3110 MIC MH was > 256 µg/mL and the Ec W3110 MIC RPMI was > 256 µg/mL. Also, the hemolysis in data set [2] was determined as 0.0319%.

Consider “CRVRVNINNGSGRVKLELEC (disulfide 1-20 (inferred)) [SySA-19]”, for which, in the data set on Escherichia coli W3110, the Ec W3110 MIC MH is > 256 µg/mL and the Ec W3110 MIC RPMI was > 256 µg/mL. Besides, the hemolysis in data set [2] turned out to be 0.33%.

As to “CVTVRVNNRGGRLKVSVEVC (disulfide 1-20 (inferred)) [SySA-56]”, in the data set on Escherichia coli W3110, the Ec W3110 MIC MH is > 256 µg/mL and the Ec W3110 MIC RPMI is > 256 µg/mL. Besides, the hemolysis in data set [2] was determined as 0.19%.

With “CRIRIDIDNRGRTVRLEVQC (disulfide 1-20 (inferred)) [SySA-28]”, in the data set with Escherichia coli W3110, the Ec W3110 MIC MH is > 256 µg/mL and the Ec W3110 MIC RPMI is > 256 µg/mL. Moreover, the hemolysis in data set [2] turned out to be 0.0423%.

As for “CRVKVNINNGSRRLRLQVQC (disulfide 1-20 (inferred)) [SySA-50]”, in the data set on Escherichia coli W3110, the Ec W3110 MIC MH is > 256 µg/mL and the Ec W3110 MIC RPMI is > 256 µg/mL. The hemolysis in data set [2] worked out at 0.34%.

For the compound “CVRVRLDNRGGGLRISLEVC (disulfide 1-20 (inferred)) [SySA-2]”, in the data set on Escherichia coli W3110, the Ec W3110 MIC MH was > 256 µg/mL and the Ec W3110 MIC RPMI is > 256 µg/mL. Besides, the hemolysis in data set [2] worked out at 0.57%.

In the case of “CRVKINVDNRSGRVKLELQC (disulfide 1-20 (inferred)) [SySA-69]”, in the data set on Escherichia coli W3110, the Ec W3110 MIC MH is > 256 µg/mL and the Ec W3110 MIC RPMI is > 256 µg/mL. In data set [2], the hemolysis is 0.72%.

For “CRVKINIDNRSRRVKLQVQC (disulfide 1-20 (inferred)) [SySA-6]”, in the data set on Escherichia coli W3110, the Ec W3110 MIC MH was > 256 µg/mL and the Ec W3110 MIC RPMI was > 256 µg/mL. In data set [2], the hemolysis is recorded as 0.66%.

With “CLRVRVDNGGSRLKITLEVC (disulfide 1-20 (inferred)) [SySA-75]”, in the data set on Escherichia coli W3110, the Ec W3110 MIC MH is > 256 µg/mL and the Ec W3110 MIC RPMI is > 256 µg/mL. Also, the hemolysis in data set [2] was 2.18%.

As to `NC[C@H]1O[C@H](O[C@H]2[C@H](O)[C@@H](O[C@H]3O[C@H](CO)[C@@H](O)[C@H](N)[C@H]3O)[C@H](N)C[C@@H]2N)[C@H](O)[C@@H](O)[C@@H]1O` [kanamycin, reference compound], the Ec W3110 MIC MH with Escherichia coli W3110 came out at 1 µg/mL. This compound also registered a W3110 MIC MHII in the data set on Escherichia coli W3110 (E. coli W3110, MHII medium) of 2 µg/mL. Also, in the data set with Escherichia coli W3110 (cation-adjusted MH (MHII) vs standard MH), the “fold increase in MHII MIC relative to standard MH” value is reported as “twofold”. Further, the “Hemolysis (%)” value in data set [2] (human red blood cells 1x10^9 cells/ml, peptide 300 μg/ml, 3 h 37°C, relative to 1% Triton X-100, A540, ± 1 SD, n=3) was found to be 0.1 ± 0.03%. Also, the hemolysis in data set [2] (human red blood cells, st dev in separate column) is 0.0147%.

On to `CC[C@H](C)[C@@H]1NC(=O)[C@H](CCCNC(=N)N)NC(=O)[C@H](C(C)C)NC(=O)[C@@H](N)CSSC[C@@H](C(=O)O)NC(=O)[C@H](C(C)C)NC(=O)[C@H](CCC(N)=O)NC(=O)[C@H](C(C)C)NC(=O)[C@H](CO)NC(=O)[C@H](C(C)C)NC(=O)[C@H](CCCNC(=N)N)NC(=O)[C@H](C(C)C)NC(=O)[C@H](CCCNC(=N)N)NC(=O)[C@H](CCCNC(=N)N)NC(=O)[C@H](CCCNC(=N)N)NC(=O)[C@H](CCCNC(=N)N)NC(=O)[C@H](CC(N)=O)NC(=O)[C@H](CC(N)=O)NC(=O)[C@H](CC(C)C)NC(=O)[C@H](CCCNC(=N)N)NC1=O` [SyPA-6] (H-CVRIRLNNRRRRVRVSVQVC-OH; disulfide 1-20), for which the “W3110 MIC” value in the data set with Escherichia coli W3110 (SyPA peptides, MH, replicate 1) came to 32 µg/mL; with Escherichia coli W3110 (SyPA peptides, MH, replicate 2), 32 µg/mL; in the data set with Escherichia coli W3110 (SyPA peptides, MH, replicate 3), 32 µg/mL. Further, the “%Hemo” value in data set [2] (SyPA peptides, human red blood cells, 3 h 37°C, relative to 1% Triton X-100, peptide concentration not stated for SyPA, n=3) was determined as 0.90%.
